Data reported in patent publication US5214040A, “Nonsaditive antihistaminics derived from benzimidazoles” (Laboratorios del Dr. Esteve, S.A., priority 1991, dated 1993).

Experiments:
[1] = test system: 48/80-induced death in rats; test: Protection against mortality caused by compound 48/80 in rats (antihistaminic activity in vivo); settings: Rattus norvegicus, ip, 60 min before 48/80 (0.5 mg/kg, i.v.), survival 4 hours after, read-out: ED-50 (protection from 48/80-induced death)
Method: The antihistaminic activity was studied by determining the protection against the mortality caused by the product 48/80 in rats. This trial was performed according to the technique described by C.
The activity of the products is studied at several doses in order to determine the dose which is capable of protecting 50% of the animals (ED-50).
Finally, the antihistaminic activity of the product of Example 1 is indicated.

[2] = test system: rats; test: Sedative effect: Irwin test (behaviour of rats); type: in vivo; settings: i.p.; for Atax. (ataxia) / pas. (passivity, sedation, prostration): score 0 to 3, 1, 2 and 3 hours after treatment
Method: Pas.: Passivity, sedation, prostration. Quantitative evaluation between 0 and 3. They are performed 1, 2 and 3 hours after the treatment.
Atax.: Ataxia, the modifications of coordination in movement are evaluated. The are evaluated between 0 and 3. They are performed 1, 2 and 3 hours after the treatment.

[3] = Sedative effect: potentiation of pentobarbital-induced duration of sleep; settings: for potentiation of pentobarbital-induced duration of sleep (in words): orally; for Potentiation of duration of sleep: p.o., vs control group with pentobarbital 35 mg/kg, s.c.
Method: The studied products were administered orally. […] The duration of sleep was compared with a control group of animals treated only with sodium pentobarbital.

| SMILES | ED50 [1] [mg/kg] | Atax. (ataxia) ([2]; dose 40 mg/kg) | pas. (passivity, sedation, prostration) ([2]; dose 40 mg/kg) | potentiation of pentobarbital-induced duration of sleep (in words) ([3]; at a dose of 20 mg/kg) | sedative effect (in words) ([2]; Irwin test, rats) | Atax. (ataxia) ([2]; dose 80 mg/kg) | pas. (passivity, sedation, prostration) ([2]; dose 80 mg/kg) | Potentiation of duration of sleep ([3]; dose 80 mg/kg) [%] | Potentiation of duration of sleep ([3]; dose 160 mg/kg) [%] | potentiation of pentobarbital-induced duration of sleep (in words) ([3]; even at 160 mg/kg, the maximum dose tested) |
| --- | --- | --- | --- | --- | --- | --- | --- | --- | --- | --- |
| CN(C)CCOC(c1ccccc1)c1ccccc1 [Difenhidramine, reference compound] | 5.4 | 0.9 | 0 | significantly potentiates | – | – | – | – | – | – |
| CCOCCn1c(CN2CCCN(CCCCn3cccn3)CC2)nc2ccccc21 [Example 1, 1-(2-ethoxyethyl)-2-{4-[4-(pyrazol-1-yl)butyl]homopiperazin-1-ylmethyl}benzimidazole] | 0.04 | – | – | – | very weak sedative effect | 0.2 | 0 | 8 | 1 | does not potentiate |
